Columns and labels:
[1] = system: NMDA receptor; assay: NMDA-induced responses recorded in intact chick retina (eyecup, optic nerve DC potential); type: cell-based; conditions: APV 100 μM
Method: Eyecups were obtained from 2-to 5-day-old chicks and continuously superfused at 20-25° C. at a rate of 8 ml/min with Tyrodes solution (130 mM NaCl, 3 mM KCl, 17 mM dextrose, 20 mM NaHCO3, 0.01% w/v phenol red; bubbled with a gas mixture of 95% O2 and 5% CO2) containing 5 mM MgCl2 to reduce synaptic activity. […] Traces were triggered by the opening of two solenoid valves that shunted approximately 200 μl of agonist (1, 1-dimethyl-4-phenyl-piperazinium iodide, DMPP or NMDA) into the perfusion line, Agonists reached the preparation approximately 7s later. […] Some experiments were performed in the presence of 10 μg/ml catalase and 1 μg/ml superoxide dismutase. Antagonists, reducing agents, or oxidizing agents were introduced directly via the perfusate.

[2] = system: retinal ganglion cells; assay: Survival of retinal ganglion cells exposed to glutamate (NMDA neurotoxicity); type: cell-based, rat; conditions: for NMDA receptor-mediated neurotoxicity / neuronal cell injury: oxidized DTT produced from reduced DTT with DTNB
Method: To investigate the influence of redox modulation on NMDA neurotoxicity, survival of an identified central neuron, the retinal ganglion cell, was monitored for 12-24 hr after a brief (5-10 min.) exposure to DTT. To determine the degree of killing specifically related to activation of the NMDA receptor, APV at 200 μM was added to sibling cultures. APV-preventable, glutamate-induced death was increased 70±9% with DTT treatment.
Retinal ganglion cell neurons were labeled in situ, dissociated from the retina, and cultured as follows. Retinal ganglion cells from 7- to 12-day-old Long-Evans rats were labeled and enzymatically dissociated as described by Leifer et al., Science 224: 303, 1984. Following rinse of the dissociated retinal cells with a physiological saline based on Hanks' salts (composition in mM: NaCl, 137; NaHCO3, 1; Na2HPO4, 0.34; KCl, 5,36; KH2PO4, 0.44; CaCl2, 1.25, MgSO4, 0.5; MgCl2, 0.5; N-2-hydroxyethyl-piperazine-N′-2-ethanesulfonic acid (HEPES), 5; dextrose, 22.2; Phenol Red, 0.001% v/v; adjusted to pH 7.2 with 0.3 M NaOH), the cells were mechanically dispersed and aliquoted to treatment vials. These vials contained control saline solution, or saline solution with either 0.5-2 mM DTT, or 0.5 mM DTT in the presence of 1 mM DTNB. Treatment groups with DTNB were readjusted to pH 7.2 with 0.3 M NaOH. Cells were agitated gently over a 5-10 min period. After treatment, 100 μl volumes of the cell suspension were plated onto glass coverslips coated with poly-L-lysine in 35×10 mm tissue-culture dishes containing 2 ml of culture medium. The cell culture medium was based on Eagle's minimum essential medium (MEM), modified so that it was nominally free of magnesium and contained 10 mM CaCl2 to enhance NMDA receptor-mediated neuro-toxicity. The medium was also supplemented with methylcellulose 0.7% w/v, gentamicin 1 μg/ml, dextrose 16 mM, and rat serum 5% v/v. Glutamate levels in the culture medium were monitored by HPLC analysis. Concentrations of glutamate added to the medium of each experiment to induce cell killing averaged 10 μM (day to day variability in neuronal cell death was most probably due to slight variations in the amount of endogenous glutamate or a glutamate-like substance in these cultures). The 100 μl aliquots of cell suspension diluted into the 2 ml of MEM produced a final concentration of 50 μM Mg^2+, as well as levels of DTT and DTNB at 5% of their initial treatment concentrations. The cell cultures were incubated for 12-24 hours at 37° C. in an atmosphere of 5% CO2/95% humidified air. Neuronal survival was then scored by counting retinal ganglion cells displaying uptake and cleavage of fluorescein diacetate to fluorescein, as described by Hahn et al. Proc. Nat. Acad. Sci. USA 85:6556, 1988.
Experiments were conducted in triplicate and repeated on eleven separate days. In order to compare results obtained on different days, data were normalized such that the total number of surviving neurons in a given experiment divided by the number of treatment categories (i.e., 4) equalled 100.
Retinal cells were cultured as described in Example 1. In these experiments transient exposure to the reduced form of DTT (500 μM) occurred in the presence of DTNB (1 mM).

[3] = system: NMDA receptors; conditions: 0.5-10 mM

SMILES: NC(CCCP(=O)(O)O)C(=O)O (stereo not shown) [APV, 2-amino-5-phosphonovalerate]
- NMDA-induced responses in native and reduced states [1]: blocked NMDA-induced responses
- vulnerability of neurons despite DTT treatment ([2]; 200 μM APV after DTT treatment): could be blocked
- death of retinal ganglion cells exposed to glutamate in the culture medium ([2]; APV 200 μM, DTT transient exposure, 12-24 hr): prevented the death
- neuronal survival compared to baseline ([2]; DTT 500 μM in the presence of DTNB 1 mM, APV cultures P<0.01): significantly greater than baseline

SMILES: O[C@H]1CSSC[C@@H]1O [oxidized DTT, oxidized dithiotheritol]
- NMDA receptor-mediated neurotoxicity / neuronal cell injury [2]: does not effect neuronal cell injury
- NMDA receptor-mediated neurotoxicity / neuronal cell injury ([2]; listed as oxidized dithiotheritol (DTT)): does not significantly affect

SMILES: N[C@@H](CCC(=O)N[C@@H](CS)C(=O)NCC(=O)O)C(=O)O [reduced glutathione, glutathione]
- protection against toxicity mediated at NMDA receptors [3]: can protect
